Test results taken from publication PMC12667198, “Menthol‐like cooling compounds, including (R)‐(‐)‐carvone, inhibit the human bitter taste receptors for saccharin and acesulfame K” (FEBS Open Bio, 2025).

target: T1, TAS2R31 (Homo sapiens, UniProt P59538); test: luminescence (mt-apoclytin II) Ca2+ assay, HEK293T; type: cell-based
T1 construct: pEAK10; transient in HEK293T with chimeric G protein Galpha16gust44 (and mt-apoclytin II reporter)
T1 sequence (P59538 1-309): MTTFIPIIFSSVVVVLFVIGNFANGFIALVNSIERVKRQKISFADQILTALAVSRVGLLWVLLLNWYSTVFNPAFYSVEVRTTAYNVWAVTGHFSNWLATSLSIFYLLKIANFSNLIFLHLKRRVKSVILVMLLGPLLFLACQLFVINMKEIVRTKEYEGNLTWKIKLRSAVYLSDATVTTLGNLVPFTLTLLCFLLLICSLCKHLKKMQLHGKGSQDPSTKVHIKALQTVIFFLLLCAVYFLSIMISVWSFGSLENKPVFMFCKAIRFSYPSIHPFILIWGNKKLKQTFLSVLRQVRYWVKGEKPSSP

Question: How did the IC50 turn out when `C=C(C)[C@@H]1CC=C(C)C(=O)C1` [(R)‐(‐)‐carvone] was run?
Answer: 86 µM

Question: With `CC(C)=C1CC[C@@H](C)CC1=O` [(+)‐pulegone] as the compound, how does the IC50 read?
Answer: 290 ± 47 µM

Question: For `CC(C)[C@@H]1CC[C@@H](C)C[C@H]1O` [(−)‐menthol], which IC50 is on record?
Answer: 310 ± 58 µM

Question: Which IC50 does the source give for `CC(C)[C@H]1CC[C@H](C)C[C@@H]1O` [(+)‐menthol] here?
Answer: 220 ± 15 µM

Question: With `CC(C)[C@@H]1CC[C@@H](C)CC1=O` [menthone] as the compound, how does the IC50 read?
Answer: 570 ± 100 µM

Question: How did the IC50 turn out when `CC1=CC(=O)[C@@H](C(C)C)CC1` [(R)‐(‐)‐piperitone] was run?
Answer: 180 ± 19 µM
